# Assay results taken from patent US11434258B2, “Compounds (immunorhelins)” (ISR IMMUNE SYSTEM REGULATION HOLDING AB (PUBL), priority 2017, dated 2022).
# Non-standard residues stand in square brackets, D forms with d. Residues, ends and D or L forms follow the SMILES beside them. pGlu = O=C1CC[C@@H](C(=O)O)N1
# Tested on: T cells
# Assay: Immune stimulation assay: MHC class I expression on T cells (PBMCs, flow cytometry)
# Format: cell-based, human
# Details: PBMCs from a healthy donor, with IL-2, 72 hours
# Protocol: FIG. 1: Expression of MHC class I after stimulation of T cells with increasing concentrations of GnRH II. PBMCs from a healthy donor was stimulated with GnRH II and IL-2 for 72 hours. Data points represent mean fluorescent intensity of MCH class I expression on CD4^+ T cells (blue triangles) or CD8^+ T cells (black squares) measured with flow cytometry.
# (black). […] Data points represent mean fluorescent intensity of MCH class I expression on CD4^+ T cells (A) or CD8^+ T cells (B) measured with flow cytometry.
# Human peripheral blood mononuclear cells (PBMCs) were purified from healthy donors with Ficoll-Hypaque density centrifugation. Cells were cultured in RPMI-1640 medium (Invitrogen) supplemented with 10% fetal bovine serum, 100 […], 100 μg/mL streptomycin and IL-2 (100 U/mL) for 72 hours in 37° C., 5% CO2.
structure (smiles),measurement,value
NC(=O)CNC(=O)[C@@H]1CCCN1C(=O)[C@H](Cc1ccc(O)cc1)NC(=O)[C@H](Cc1c[nH]c2ccccc12)NC(=O)CNC(=O)[C@H](Cc1c[nH]cn1)NC(=O)[C@H](CO)NC(=O)[C@H](Cc1c[nH]c2ccccc12)NC(=O)[C@H](Cc1c[nH]cn1)NC(=O)[C@@H]1CCC(=O)N1 [GnRH II] ([pGlu]HWSHGWYPG-NH2),MHC class I expression on T cells,directly activates these cells
